From patent US20160100586A1, “MICROBIAL AGRICULTURE” (DSM IP ASSETS B.V., priority 2013, published 2016)

System: Colletotrichum gloeosporioides (CBS272.51)
Assay: Agar plug bio-assay on YME agar, fungal colony radius towards Streptomyces or natamycin plug
Assay type: cell-based
Protocol: Three fungal plant pathogens were tested against the selected S. natalensis strains: Fusarium oxysporum f.sp. lycopersici (CBS414.90), Colletotrichum gloeosporioides (CBS272.51) and Alternaria alternata (CBS103.33). Fusarium oxysporum f.sp. lycopersici is a soil borne fungus causing yield loss in e.g. tomato crops (Fusarium Wilt). Colletotrichum gloeosporioides causes e.g. anthracnose, a plant disease recognizable by dark brown lesions on leaves and fruits. Alternaria alternata is a worldwide occurring saprophyte that can cause phytopathogenic reactions in economically important host plants. The selected S. natalensis strains were tested against these fungal plant pathogens as described below. Frozen vials (glycerol stocks) or freeze dried tubes from the selected S. natalensis strains were transferred to 100 ml baffled Erlenmeyer flasks containing 20 ml of Yeast Malt Extract broth (YME). Freeze dried tubes were resuspended in physiological saline and stored 1 hour at room temperature before they were transferred to the medium. The Erlenmeyer flasks were incubated in an incubator shaker for 3 days at 28° C. and 180 rpm. For each strain, 200 μl of liquid media was transferred to YME agar plates (90 mm petridishes containing 20 ml of media) and dispersed with the use of a sterile spreader onto the surface of the media). Subsequently, the agar plates were incubated for 4 days at 28° C. to enhance full colony coverage of the plate surface. The selected fungi were plated directly from a glycerol stock (200 μl) to YME agar and subsequently incubated for 4 days at 28° C. The bio-assay was done as follows. Overgrown Streptomyces and fungi plates made as described above were used to produce agar plugs. The plugs were made by cutting out the agar by using a sterile cork-borer (11 mm diameter) and subsequently removing it by a pre-sterilized spatula. Freshly produced non-inoculated YME agar plates were marked with a line on the back of the petridish. This line with a fixed length of 4 cm was placed in the middle of the petridish. Subsequently, a Streptomyces inoculated agar plug was transferred to the fresh YME agar plate at the left end of the line. The above-described “plug transfer” step was repeated for the respective fungi. The respective fungi plugs were placed at the right end of the line on the same YME agar plate. Each Streptomyces strain was challenged in triplicate against each fungus. For each tested fungus, a control sample was taken (in triplicate) by using a non-inoculated agar plug that was placed on the left side of the petridish. Next, the plates were placed with the plugs on top in an incubator. Subsequently, the plates were stored at 28° C. for 7 days. After 7 days the radius of the fungal colony was measured in the direction of the opposite agar plug (Streptomyces sample). This step was repeated for the control sample. The inhibition zone (in percentage) was calculated by using the following formula: 100%*(r0−r1)/r0 wherein r0 is the radius (in mm, corrected for the plug radius) of the fungal colony from the control sample and wherein r1 is the radius (in mm, corrected for the plug radius) of the fungal colony from the Streptomyces inhibited sample. Frozen vials (glycerol stocks) from the selected S. natalensis strains were transferred to 100 ml baffled Erlenmeyer flasks containing 20 ml of Yeast Malt Extract broth (YME). The Erlenmeyer flasks were incubated in an incubator shaker for 3 days at 28° C. and 180 rpm. For each strain, 200 μl of liquid media was transferred to YME agar plates and incubated for 4 days at 28° C. to enhance full colony coverage of the plate surface. Botrytis cinerea was plated directly from glycerol stock (100 μl) to YME agar and subsequently incubated for 9 days at 28° C. All other selected fungi were plated directly from a glycerol stock (200 μl) to YME agar and subsequently incubated for 4 days at 28° C. […]

Structure (SMILES): C[C@@H]1C/C=C/C=C/C=C/C=C/[C@H](O[C@@H]2O[C@H](C)[C@@H](O)[C@H](N)[C@@H]2O)C[C@@H]2O[C@](O)(C[C@@H](O)C[C@H]3O[C@@H]3/C=C/C(=O)O1)C[C@H](O)[C@H]2C(=O)O [Natamycin, natamycin]
- inhibition at 10 ppm (Colletotrichum gloeosporioides, CBS272, 168 h, Example 7, agar plug with 10 ppm natamycin, 5% w/w methanol, 7 days at 28° C., read-out: Average inhibition zone (in %)): 4%
- inhibition at 25 ppm (Colletotrichum gloeosporioides, CBS272, 168 h, Example 7, agar plug with 25 ppm natamycin, 5% w/w methanol, 7 days at 28° C., read-out: Average inhibition zone (in %)): 7%
- inhibition at 50 ppm (Colletotrichum gloeosporioides, CBS272, 168 h, Example 7, agar plug with 50 ppm natamycin, 5% w/w methanol, 7 days at 28° C., read-out: Average inhibition zone (in %)): 15%
- inhibition at 75 ppm (Colletotrichum gloeosporioides, CBS272, 168 h, Example 7, agar plug with 75 ppm natamycin, 5% w/w methanol, 7 days at 28° C., read-out: Average inhibition zone (in %)): 18%
- inhibition at 100 ppm (Colletotrichum gloeosporioides, CBS272, 168 h, Example 7, agar plug with 100 ppm natamycin, 5% w/w methanol, 7 days at 28° C., read-out: Average inhibition zone (in %)): 21%
- inhibition at 175 ppm (Colletotrichum gloeosporioides, CBS272, 168 h, Example 7, agar plug with 175 ppm natamycin, 5% w/w methanol, 7 days at 28° C., read-out: Average inhibition zone (in %)): 25%
- inhibition at 250 ppm (Colletotrichum gloeosporioides, CBS272, 168 h, Example 7, agar plug with 250 ppm natamycin, 5% w/w methanol, 7 days at 28° C., read-out: Average inhibition zone (in %)): 28%
- inhibition at 375 ppm (Colletotrichum gloeosporioides, CBS272, 168 h, Example 7, agar plug with 375 ppm natamycin, 5% w/w methanol, 7 days at 28° C., read-out: Average inhibition zone (in %)): 35%
- inhibition at 500 ppm (Colletotrichum gloeosporioides, CBS272, 168 h, Example 7, agar plug with 500 ppm natamycin, 5% w/w methanol, 7 days at 28° C., read-out: Average inhibition zone (in %)): 41%
- natamycin concentration in agar plug giving similar inhibition zone as the S. natalensis ATCC-27448 agar plug (Example 7, 7 days at 28° C.): approximately 375 ppm
- Fungal radius (in mm) (Example 7, agar plug with 10 ppm natamycin, 5% w/w methanol, 7 days at 28° C.): 44.3 mm
- Fungal radius (in mm) (Example 7, agar plug with 25 ppm natamycin, 5% w/w methanol, 7 days at 28° C.): 43.2 mm
- Fungal radius (in mm) (Example 7, agar plug with 50 ppm natamycin, 5% w/w methanol, 7 days at 28° C.): 39.3 mm
- Fungal radius (in mm) (Example 7, agar plug with 75 ppm natamycin, 5% w/w methanol, 7 days at 28° C.): 37.8 mm
- Fungal radius (in mm) (Example 7, agar plug with 100 ppm natamycin, 5% w/w methanol, 7 days at 28° C.): 36.7 mm
- Fungal radius (in mm) (Example 7, agar plug with 175 ppm natamycin, 5% w/w methanol, 7 days at 28° C.): 34.8 mm
- Fungal radius (in mm) (Example 7, agar plug with 250 ppm natamycin, 5% w/w methanol, 7 days at 28° C.): 33.2 mm
- Fungal radius (in mm) (Example 7, agar plug with 375 ppm natamycin, 5% w/w methanol, 7 days at 28° C.): 30.3 mm
- Fungal radius (in mm) (Example 7, agar plug with 500 ppm natamycin, 5% w/w methanol, 7 days at 28° C.): 27.3 mm
